# Literature values as cited in PubChem BioAssay AID1259409 (Chemical Carcinogenesis Research Information System (CCRIS), 2018).
# System: rodent chemically induced tumor inhibition, incidence and multiplicity
# Experiment: CCRIS tumor inhibitor studies
# Details: for tumour outcome (control, treated, inhibition, significance): Route [Inhibitor]: ORAL, Promoter: NONE USED
compound,measurement,setting,value
CC[C@H](C)C(=O)O[C@H]1CCC=C2C=C[C@H](C)[C@H](CC[C@@H]3C[C@@H](O)CC(=O)O3)[C@H]21,"tumour outcome (control, treated, inhibition, significance)","Carcinogen: N-ETHYL-N-HYDROXYETHYLNITROSAMINE, 13147-25-6, Dose [Inhibitor]: 0, 0.02% IN DIET BEGINNING 23 WK POST LAST CARCINOGEN DOSE AND CONTINUING TO WK 40 (STUDY DURATION: 40 WK), Species: RAT, Strain/Sex: WISTAR/MALE, Target Tissue: Type of Lesion: KIDNEY: RENAL CELL TUMORS, Dose [Carcinogen]: 0.1% IN DIET FOR 2 WK","6/17 (35%), 1/10 (10%), 71%, not calculated"
CC(=O)Nc1nnc(S(N)(=O)=O)s1,"tumour outcome (control, treated, inhibition, significance)","Carcinogen: N-BUTYL-N-(4-HYDROXYBUTYL)NITROSAMINE, 3817-11-6, Dose [Inhibitor]: 0.35% DIET DAILY FOR 34 WK STARTING AFTER CARCINOGEN TREATMENT (STUDY DURATION: 38 WK), Species: RAT, Strain/Sex: F344/MALE, Target Tissue: Type of Lesion: URINARY BLADDER: PAPILLOMA, Dose [Carcinogen]: 0.01% IN DRINKING WATER FOR 4 WK","33%, 15%, 55%, not significant"
CC(C)(Sc1cc(C(C)(C)C)c(O)c(C(C)(C)C)c1)Sc1cc(C(C)(C)C)c(O)c(C(C)(C)C)c1,"tumour outcome (control, treated, inhibition, significance)","Carcinogen: BENZO[A]PYRENE, 50-32-8, Dose [Inhibitor]: 0, 0.06% IN DIET FOR DURATION OF STUDY BEGINNING 2 WK PRIOR TO CARCINOGEN DOSE (STUDY DURATION: 25 WK), Species: MOUSE, Strain/Sex: STRAIN-A/FEMALE, Target Tissue: Type of Lesion: FORESTOMACH: TUMOR, Dose [Carcinogen]: 1 MG IN 0.2 ML OLIVE OIL 2/WK FOR 4 WK","15/15 (100%), 13/13 (100%), 0%, not significant"
same,"tumour outcome (control, treated, inhibition, significance)","Carcinogen: BENZO[A]PYRENE, 50-32-8, Dose [Inhibitor]: 0, 0.06% IN DIET FOR DURATION OF STUDY BEGINNING 2 WK PRIOR TO CARCINOGEN DOSE (STUDY DURATION: 25 WK), Species: MOUSE, Strain/Sex: STRAIN-A/FEMALE, Target Tissue: Type of Lesion: LUNG: ADENOMA, Dose [Carcinogen]: 1 MG IN 0.2 ML OLIVE OIL 2/WK FOR 4 WK","15/15 (100%), 13/13 (100%), 0%, not significant"
same,"tumour outcome (control, treated, inhibition, significance)","Carcinogen: BENZO[A]PYRENE, 50-32-8, Dose [Inhibitor]: 0, 1% IN DIET FOR DURATION OF STUDY BEGINNING 2 WK PRIOR TO CARCINOGEN DOSE (STUDY DURATION: 25 WK), Species: MOUSE, Strain/Sex: STRAIN-A/FEMALE, Target Tissue: Type of Lesion: FORESTOMACH: TUMOR, Dose [Carcinogen]: 1 MG IN 0.2 ML OLIVE OIL 2/WK FOR 4 WK","15/15 (100%), 15/15 (100%), 0%, not significant"
same,"tumour outcome (control, treated, inhibition, significance)","Carcinogen: BENZO[A]PYRENE, 50-32-8, Dose [Inhibitor]: 0, 1% IN DIET FOR DURATION OF STUDY BEGINNING 2 WK PRIOR TO CARCINOGEN DOSE (STUDY DURATION: 25 WK), Species: MOUSE, Strain/Sex: STRAIN-A/FEMALE, Target Tissue: Type of Lesion: LUNG: ADENOMA, Dose [Carcinogen]: 1 MG IN 0.2 ML OLIVE OIL 2/WK FOR 4 WK","15/15 (100%), 15/15 (100%), 0%, not significant"
same,outcome,"Carcinogen: N,N-diethylnitrosamine, 55-18-5, Dose [Inhibitor]: 1% in diet through study, dose and study duration 24 wk, Route [Inhibitor]: Oral, Species: Mouse, Strain/Sex: ddy/Male, Target Tissue: Type of Lesion: Kidney, Dose [Carcinogen]: 100 mg/kg bw, Promoter: Ferric nitrilotriacetate, 16448-54-7","14/20 (70%), 4/20 (20%)"
